# Columns and labels:
# [1] = test system: patients with advanced solid tumours; assay: Phase I toxicity assessment (NCI-CTC version 2.0), oral XR11576 days 1–5 every 21 days; format: in vivo
# Experimental: The total dose prescribed was rounded to the nearest 5 mg. […] Dose escalations between cohorts were based on the prior dose level's toxicity and pharmacological data, allowing a dose escalation up to 100% (which was determined by the worst significant toxicity). […] The stopping dose was defined as the dose level that induced dose-limiting toxicity (DLT) during course 1 in ⩾2/3 or ⩾2/6 patients. Dose-limiting toxicities were defined as grade 4 granulocytopenia for 7 or more days, febrile neutropenia, platelets <25.0 × 10^9 l^−1 and/or nonhaematological toxicity ⩾grade 3. Nausea and vomiting subsequently responding to antiemetic therapy were excluded from DLT. […] If a patient encountered DLT, the dose of XR11576 was decreased by one dose level at re-treatment. […] At the dose recommended for further studies, the number of patients treated could be expanded to 12. Toxicities were evaluated according to the National Cancer Institute Common Toxicity Criteria, version 2.0 (ctep.info.nih.gov/reporting/in dex.html).
# Before treatment, a complete medical history was recorded and a physical examination performed. A complete blood count (CBC) including white blood cell differential and serum biochemistry, which involved sodium, potassium, calcium, urea, creatinine, uric acid, total protein, albumin, total bilirubin, alkaline phosphatase, γ-glutamyl transferase, aspartate aminotransferase, alanine aminotransferase, lactate dehydrogenase and glucose, were performed, as were urinalysis, pregnancy test, relevant tumour markers, electrocardiogram and a chest X-ray. […] Weekly evaluations included history, physical examination, toxicity assessment according to the CTC criteria version 2.0, and serum chemistries. Complete blood count was determined twice weekly. Tumour evaluation was performed after every two courses according to the Response Evaluation Criteria in Solid Tumours (RECIST) ([Therasse et al, 2000]). Patients were taken off protocol at the onset of disease progression.
# [2] = test system: human colon and small-cell lung cancer xenografts; design: method as in Mistry et al, 2002; Lewis et al, 2003; conditions: ref Mistry et al, 2002, Lewis et al, 2003; cited from earlier work
# rats = conditions: 14-day oral administration schedule; cited from earlier work
# [3] = mice; cited from earlier work
# [4] = orally on days 1–5 every 3 weeks
smiles,measurement,setting,value
"COc1cccc2c1ccc1nc3cccc(C(=O)N[C@H](C)CN(C)C)c3nc12 [XR11576, 4-methoxy-benzo[a]phenazine-11-carboxylic acid (2-dimethulamino-1-R-methyl-ethyl)-amide]","nausea and vomiting, median duration",[1]; 30 mg,2 days
same,"nausea and vomiting, range of duration",[1]; 30 mg,1 to 5 days
same,"Diarrhoea grade 1, worse toxicity per cycle","[1]; 30 mg day^−1, all cycles",1
same,"Fatigue grade 1, worse toxicity per cycle","[1]; 30 mg day^−1, all cycles",1
same,"Fatigue grade 2, worse toxicity per cycle","[1]; 30 mg day^−1, all cycles",2
same,"Nausea grade 1, worse toxicity per cycle","[1]; 30 mg day^−1, all cycles",3
same,"Nausea grade 2, worse toxicity per cycle","[1]; 30 mg day^−1, all cycles",2
same,"Vomiting grade 1, worse toxicity per cycle","[1]; 30 mg day^−1, all cycles",3
same,"Fatigue grade 1, no. of patients","[1]; 30 mg day^−1, first cycle",1
same,"Fatigue grade 2, no. of patients","[1]; 30 mg day^−1, first cycle",1
same,"Nausea grade 1, no. of patients","[1]; 30 mg day^−1, first cycle",2
same,"Diarrhoea grade 1, worse toxicity per cycle","[1]; 60 mg day^−1, all cycles",1
same,"Fatigue grade 1, worse toxicity per cycle","[1]; 60 mg day^−1, all cycles",2
same,"Fatigue grade 2, worse toxicity per cycle","[1]; 60 mg day^−1, all cycles",2
same,"Fatigue grade 3, worse toxicity per cycle","[1]; 60 mg day^−1, all cycles",2
same,"Nausea grade 1, worse toxicity per cycle","[1]; 60 mg day^−1, all cycles",6
same,"Vomiting grade 1, worse toxicity per cycle","[1]; 60 mg day^−1, all cycles",4
same,"Diarrhoea grade 1, no. of patients","[1]; 60 mg day^−1, first cycle",1
same,"Fatigue grade 1, no. of patients","[1]; 60 mg day^−1, first cycle",1
same,"Fatigue grade 3, no. of patients","[1]; 60 mg day^−1, first cycle",1
same,"Nausea grade 1, no. of patients","[1]; 60 mg day^−1, first cycle",3
same,"Vomiting grade 1, no. of patients","[1]; 60 mg day^−1, first cycle",2
same,"Diarrhoea grade 1, worse toxicity per cycle","[1]; 120 mg day^−1, all cycles",3
same,"Diarrhoea grade 2, worse toxicity per cycle","[1]; 120 mg day^−1, all cycles",3
same,"Diarrhoea grade 3, worse toxicity per cycle","[1]; 120 mg day^−1, all cycles",1
same,"Fatigue grade 1, worse toxicity per cycle","[1]; 120 mg day^−1, all cycles",5
same,"Fatigue grade 2, worse toxicity per cycle","[1]; 120 mg day^−1, all cycles",5
same,"Fatigue grade 3, worse toxicity per cycle","[1]; 120 mg day^−1, all cycles",1
same,"Nausea grade 1, worse toxicity per cycle","[1]; 120 mg day^−1, all cycles",8
same,"Nausea grade 2, worse toxicity per cycle","[1]; 120 mg day^−1, all cycles",7
same,"Plt grade 1, worse toxicity per cycle","[1]; 120 mg day^−1, all cycles",1
same,"Vomiting grade 1, worse toxicity per cycle","[1]; 120 mg day^−1, all cycles",3
same,"Vomiting grade 2, worse toxicity per cycle","[1]; 120 mg day^−1, all cycles",5
same,"Vomiting grade 3, worse toxicity per cycle","[1]; 120 mg day^−1, all cycles",2
same,"WBC grade 1, worse toxicity per cycle","[1]; 120 mg day^−1, all cycles",2
same,"DLT, no. of patients","[1]; 120 mg day^−1, first cycle",1
same,"Diarrhoea grade 1, no. of patients","[1]; 120 mg day^−1, first cycle",1
same,"Diarrhoea grade 2, no. of patients","[1]; 120 mg day^−1, first cycle",2
same,"Diarrhoea grade 3, no. of patients","[1]; 120 mg day^−1, first cycle",1
same,"Fatigue grade 1, no. of patients","[1]; 120 mg day^−1, first cycle",3
same,"Fatigue grade 2, no. of patients","[1]; 120 mg day^−1, first cycle",3
same,"Nausea grade 1, no. of patients","[1]; 120 mg day^−1, first cycle",5
same,"Nausea grade 2, no. of patients","[1]; 120 mg day^−1, first cycle",3
same,"Vomiting grade 1, no. of patients","[1]; 120 mg day^−1, first cycle",1
same,"Vomiting grade 2, no. of patients","[1]; 120 mg day^−1, first cycle",2
same,"Vomiting grade 3, no. of patients","[1]; 120 mg day^−1, first cycle",2
same,"WBC grade 1, no. of patients","[1]; 120 mg day^−1, first cycle",1
same,"ANC grade 4, worse toxicity per cycle","[1]; 150 mg day^−1, all cycles",1
same,"Diarrhoea grade 1, worse toxicity per cycle","[1]; 150 mg day^−1, all cycles",1
same,"Diarrhoea grade 2, worse toxicity per cycle","[1]; 150 mg day^−1, all cycles",1
same,"Diarrhoea grade 3, worse toxicity per cycle","[1]; 150 mg day^−1, all cycles",1
same,"Fatigue grade 2, worse toxicity per cycle","[1]; 150 mg day^−1, all cycles",4
same,"Nausea grade 1, worse toxicity per cycle","[1]; 150 mg day^−1, all cycles",2
same,"Nausea grade 2, worse toxicity per cycle","[1]; 150 mg day^−1, all cycles",2
same,"Plt grade 1, worse toxicity per cycle","[1]; 150 mg day^−1, all cycles",1
same,"Vomiting grade 1, worse toxicity per cycle","[1]; 150 mg day^−1, all cycles",1
same,"Vomiting grade 2, worse toxicity per cycle","[1]; 150 mg day^−1, all cycles",3
same,"WBC grade 2, worse toxicity per cycle","[1]; 150 mg day^−1, all cycles",1
same,"ANC grade 4, no. of patients","[1]; 150 mg day^−1, first cycle",1
same,"DLT, no. of patients","[1]; 150 mg day^−1, first cycle",1
same,"Diarrhoea grade 1, no. of patients","[1]; 150 mg day^−1, first cycle",1
same,"Diarrhoea grade 2, no. of patients","[1]; 150 mg day^−1, first cycle",1
same,"Diarrhoea grade 3, no. of patients","[1]; 150 mg day^−1, first cycle",1
same,"Fatigue grade 2, no. of patients","[1]; 150 mg day^−1, first cycle",3
same,"Nausea grade 1, no. of patients","[1]; 150 mg day^−1, first cycle",1
same,"Nausea grade 2, no. of patients","[1]; 150 mg day^−1, first cycle",2
same,"Plt grade 1, no. of patients","[1]; 150 mg day^−1, first cycle",1
same,"Vomiting grade 2, no. of patients","[1]; 150 mg day^−1, first cycle",3
same,"WBC grade 2, no. of patients","[1]; 150 mg day^−1, first cycle",1
same,"ANC grade 3, worse toxicity per cycle","[1]; 180 mg day^−1, all cycles",1
same,"Diarrhoea grade 1, worse toxicity per cycle","[1]; 180 mg day^−1, all cycles",1
same,"Diarrhoea grade 2, worse toxicity per cycle","[1]; 180 mg day^−1, all cycles",1
same,"Diarrhoea grade 4, worse toxicity per cycle","[1]; 180 mg day^−1, all cycles",1
same,"Fatigue grade 1, worse toxicity per cycle","[1]; 180 mg day^−1, all cycles",1
same,"Fatigue grade 2, worse toxicity per cycle","[1]; 180 mg day^−1, all cycles",1
same,"Fatigue grade 3, worse toxicity per cycle","[1]; 180 mg day^−1, all cycles",2
same,"Nausea grade 1, worse toxicity per cycle","[1]; 180 mg day^−1, all cycles",3
same,"Nausea grade 2, worse toxicity per cycle","[1]; 180 mg day^−1, all cycles",1
same,"Nausea grade 3, worse toxicity per cycle","[1]; 180 mg day^−1, all cycles",1
same,"Plt grade 1, worse toxicity per cycle","[1]; 180 mg day^−1, all cycles",2
same,"Vomiting grade 2, worse toxicity per cycle","[1]; 180 mg day^−1, all cycles",5
same,"ANC grade 3, no. of patients","[1]; 180 mg day^−1, first cycle",1
same,"DLT, no. of patients","[1]; 180 mg day^−1, first cycle",1
same,"Diarrhoea grade 1, no. of patients","[1]; 180 mg day^−1, first cycle",1
same,"Diarrhoea grade 2, no. of patients","[1]; 180 mg day^−1, first cycle",1
same,"Fatigue grade 1, no. of patients","[1]; 180 mg day^−1, first cycle",1
same,"Fatigue grade 2, no. of patients","[1]; 180 mg day^−1, first cycle",1
same,"Fatigue grade 3, no. of patients","[1]; 180 mg day^−1, first cycle",1
same,"Nausea grade 1, no. of patients","[1]; 180 mg day^−1, first cycle",3
same,"Plt grade 1, no. of patients","[1]; 180 mg day^−1, first cycle",2
same,"Vomiting grade 2, no. of patients","[1]; 180 mg day^−1, first cycle",3
same,patients in whom DLT was encountered,[1]; 180 mg day^−1 dose level,two of three patients
same,"diarrhoea grade 1–2, share of cycles",[1]; all cycles,26%
same,"diarrhoea grade 3–4, share of cycles",[1]; all cycles,6%
same,"diarrhoea, median day of onset",[1]; all dose levels,5 days
same,"diarrhoea, median duration",[1]; all dose levels,4 days
same,"diarrhoea, range of day of onset",[1]; all dose levels,1 to 15 days
same,"diarrhoea, range of duration",[1]; all dose levels,1 to 14 days
same,overall haematological toxicity,[1]; all dose levels,mild
same,patients with grade 1 anaemia,[1]; all dose levels,seven patients
same,patients with grade 2 anaemia,[1]; all dose levels,four patients
same,recommended dose for further studies,[1]; days 1–5 every 3 weeks,120 mg/day
same,"nausea and vomiting, median duration",[1]; dose level 180 mg,6 days
same,"nausea and vomiting, range of duration",[1]; dose level 180 mg,1 to 20 days
same,patients who developed grade 1 alopecia,[1]; during treatment,one patient
same,patients with grade 4 neutropenia,"[1]; heavily pretreated patient, not complicated by fever",one patient
same,treatment-related deaths,[1]; in vivo,No treatment-related deaths
same,patients with thrombocytopenia,[1]; limited to grade 1 and 2,three patients
same,dose-limiting toxicities (DLT),[1]; [4],diarrhoea and fatigue
same,maximum tolerated dose (MTD),[1]; [4],180 mg/day
same,abnormalities in ECG tracings,[1]; prior to treatment and following first drug administration,No significant abnormalities
same,activity against xenografts in vivo,[2],highly active
same,maximum tolerated dose (MTD),rats,150 mg m^−2
same,effect of food on bioavailability,[3],food reduced the bioavailability
same,oral availability,[3],72±25%
